Assay results: patent publication EP0606044A1, “Lactones compounds useful as pharmaceuticals” (SANDOZ LTD., priority 1992, dated 1994)

Assays:
[1] = test system: THP-1 cells; assay: Cytokine release from THP-1 cells (γ-interferon/LPS stimulated; ELISA, RIA, LDH, DNA); format: cell-based; conditions: Homo sapiens, γ-interferon, LPS, 40 hours, read-out: IC₅₀ value in the THP-1 test (concentration of compound which inhibits to 50 % the release of IL-1β)
Experimental: 1. Cytokine Release from THP-1 Cells
The THP-1 cell line is generally available and is described by Tsuchiya et al, Int. J. Cancer 26 171-176 (1980). 900 µl THP-1 cells (0.5 x 10⁶ cells) together with 100 U γ-interferon/0.9 ml RPMI 1640 medium (containing 2 mM L-glutamine and 5 % heat-inactivated foetal calf serum) are pipetted into 24 well culture plates. 100 µl of the compound to be tested are then added. After 3 hours at 37°C in 5 % CO2/95 % air, 10 µl lipopolysaccharide 500 µg/ml is added and the incubation continued for a further 40 hours. Appropriate controls (with and without stimulus, solvent) are also included. The media are then removed and clarified by centrifugation at 1000 g for 10 min. 1.0 ml digitonin 0.01 % is added to the wells to lyse the cells which are loosened by scraping with a rubber policeman and left at 4°C for 10 min. […] IL-1β, IL-6 and TNF-α assays are determined using commercially available ELISA kits (Cistron), PGE2 is measured using a standard RIA and DNA fluorimetrically using DAPI (4',6-diamidino-2-phenylindole.2HCl) […]
For the above uses the required dosage will of course vary depending on the mode of administration, the particular condition to be treated and the effect desired. […] It has been determined that the compound of Formula I' has an IC₅₀ value in the THP-1 test (concentration of compound which inhibits to 50 % the release of IL-1β) of 0.06 µM.

[2] = Solubility (characteristics of the metabolite); format: physicochemical
Text: Formula I', which is formula I in which R₄ and R₅ are methoxy, R₆ is OH, -a-b- is cis- -CH=CH-, c is C=O, -d-e- is -CHOH-CHOH-, -f-g- is trans- -CH=CH- and the asymmetric carbon atoms marked * all have the S-configuration [drawing 2] is the structure which has been assigned to the novel metabolite designated 87-250904-F1 and having the following characteristics: White needles (from methanol/water 1:1), m.p. […] HPLC : Column : LiChrospher 100 RP-8 (5µm) (LiChroCART 125-4, Merck) Mobile phase: acetonitrile/water/orthophosphoric acid 350:650:0.175 (by vol.) Flow rate: 1.0 ml/min Detection: UV 210 nm Retention time: 3.8 min.

IC50 [1] [nM]	Solubility in methanol, DMSO, chloroform ([2]; methanol, DMSO, chloroform)	Solubility in water ([2]; water)	Compound
60	–	–	COc1cc(O)c2c(c1OC)/C=C/C[C@H](O)[C@H](O)C(=O)/C=C\C[C@H](C)OC2=O [Formula I']
–	readily soluble	Almost insoluble	COc1cc(O)c2c(c1OC)/C=C/C[C@H](O)[C@H](O)C(=O)/C=C\C[C@H](C)OC2=O [Formula I', [3S-(3R*, 5Z, 8R*, 9R*, 11E)]-3,4,9,10-tetrahydro-8,9,16-trihydroxy-13,14-dimethoxy-3-methyl-1H[2] benzoxacyclotetradecin-1,7[8H] dione]
